SMILES strings stand for the structures. Where two headings read alike, the source gives them in different places.

In test [1] the test system is NCI 60 human tumor cell lines, including breast cancer and ovarian cancer cell lines. Briefly: NCI in vitro 60 cell line human tumor screen, cell line panel. The test is classed as cell-based.
For test [2], the system named is BCF-7 breast cancer cells. Briefly: preliminary growth inhibition assay on BCF-7 breast cancer cells. In kind it is cell-based.
Test [3] relates to CCRF-CEM leukemia cell line. Briefly: NCI in vitro 60 cell line human tumor screen, CCRF-CEM. In kind it is cell-based. The conditions noted are these: NCI 60 cell line screen.
Test [4] has as its system SR leukemia cell line. Briefly: NCI in vitro 60 cell line human tumor screen, SR. In kind it is cell-based. The conditions noted are these: NCI 60 cell line screen.
Test [5] relates to CCRF-CEM leukemia cell line. The conditions noted are these: comparison value for paclitaxel; cited from earlier work.
Test [6] concerns SR leukemia cell line. The conditions noted are these: comparison value for paclitaxel; cited from earlier work.

Turning to `C=C(C)CCC[C@H](C)[C@H](O)[C@@H](C)C(=O)C(C)(C)[C@@H](O)CC(=O)O[C@@H]1C(C)=C(c2ccc(C)cn2)C[C@H]1/C=C/c1ccccc1` [Compound 35, 3,7-Dihydroxy-4,4,6,8,12-pentamethyl-5-oxo-tridec-12-enoic acid 2-methyl-3-(5-methyl-pyridin-2-yl)-5-styryl-cyclopent-2-enyl ester], the “activity in the NCI 60 cell line assay” value in test [1] (any of the cell lines) is “no significant activity”.

With `CC1=C(c2ccccc2)C[C@H]2/C=C(/C)CCC[C@H](C)[C@H](O)[C@@H](C)C(=O)C(C)(C)[C@@H](O)CC(=O)O[C@H]12` [Compound 1a], in test [2], the growth inhibition entry is “no activity”.

One may read the GI50 as the concentration giving 50% growth inhibition. `CC1=C(c2ccc(C)cn2)C[C@H]2/C=C(/C)CCC[C@H](C)[C@H](O)[C@@H](C)C(=O)C(C)(C)[C@@H](O)CC(=O)O[C@H]12` [Compound 1b, (3S,6R,7S,8S,1′S,5′S)-7,11-Dihydroxy-3,8,8,10,12,16-hexamethyl-2-(5-methyl-pyridin-2-yl)-3a,7,8,10,11,12,13,14,15,17a-decahydro-1H,6H-4-oxa-cyclopentacyclohexadecene-5,9-dione]: the results for the GI50 in test [3] and in test [4] were 2.7 nM and 2.9 nM, respectively. Moreover, the “growth inhibitory activity on the other NCI 60 cell lines” value in test [1] (all lines other than CCRF-CEM and SR, including breast cancer and ovarian cancer cell lines) is “no significant activity”.

Take `CC(=O)O[C@H]1C(=O)[C@@]2(C)[C@H]([C@H](OC(=O)c3ccccc3)[C@]3(O)C[C@H](OC(=O)[C@H](O)[C@@H](NC(=O)c4ccccc4)c4ccccc4)C(C)=C1C3(C)C)[C@]1(OC(C)=O)CO[C@@H]1C[C@@H]2O` [paclitaxel]: the GI50 is 12.6 nM in test [5] and 15.8 nM in test [6].

Source of the values: patent US8435983B2, “Conformationally restrained epothilone analogues as anti-leukemic agents” (The University of Toledo, priority 2007, dated 2013).
